{
  "source": "patent US10306886B2",
  "about": "“Lactam solubility” (Conopco, Inc., priority 2015, dated 2019)",
  "experiment": "Lactam solubility in water or water+alcohol (48 hours agitation, filtration, HPLC quantification)",
  "type": "physicochemical",
  "design": "key to Solubility Increase vs water alone: fold increase in dissolved lactam relative to water alone",
  "experimental": "Excess solid lactam (˜3 mg) was placed in a Whatman® Mini Uniprep sample vial, fitted with a 0.45 μm nylon filter. Water or water+alcohol (500 μL) was added the mixture shaken and tapped briefly to initially disperse the solid and the mixture then agitated for 48 hours using a plate shaker fitted with a vial holder (see image below). After 48 hours, the solid was removed from the system by pressing down the plunger with integral filter on the vial (see image below). This removes the solid and provides filtered solution within the inner chamber which is then ready for analysis.\nThe level of lactam dissolved in solution was quantified using HPLC analysis. Samples were analysed on an Agilent 1200® series HPLC fitted with a Thermo Hypersil® Gold C18 column (15×2.1×3 μm), isocratic elution with 60/40 methanol/water (+0.1% Formic Acid), 0.4 mL/min flow rate, using a DAD detector at 285 nm. 4-(4-chlorophenyl)-5-methylene-pyrrol-2-one has a retention time of ˜2.8 minutes.\nThe absolute level of lactam in solution is measured and reported as an increase in solubility of lactam relative to water alone.",
  "data": [
    {"smiles": "C=C1NC(=O)C=C1c1ccc(Cl)cc1", "note": "[4-(4-chlorophenyl)-5-methylene-pyrrol-2-one]", "values": [
      {"measurement": "Mean Lactam Level in Solution", "setting": "EtOH 0% in water", "result": 6.2, "unit": "ppm"},
      {"measurement": "Solubility Increase vs water alone", "setting": "EtOH 0% in water", "result": 1.00},
      {"measurement": "Mean Lactam Level in Solution", "setting": "EtOH 0.5% in water", "result": 7.9, "unit": "ppm"},
      {"measurement": "Solubility Increase vs water alone", "setting": "EtOH 0.5% in water", "result": 1.27},
      {"measurement": "Mean Lactam Level in Solution", "setting": "EtOH 1% in water", "result": 8.9, "unit": "ppm"},
      {"measurement": "Solubility Increase vs water alone", "setting": "EtOH 1% in water", "result": 1.44},
      {"measurement": "Mean Lactam Level in Solution", "setting": "EtOH 2% in water", "result": 10.7, "unit": "ppm"},
      {"measurement": "Solubility Increase vs water alone", "setting": "EtOH 2% in water", "result": 1.73},
      {"measurement": "Mean Lactam Level in Solution", "setting": "EtOH 5% in water", "result": 13.4, "unit": "ppm"},
      {"measurement": "Solubility Increase vs water alone", "setting": "EtOH 5% in water", "result": 2.16},
      {"measurement": "Mean Lactam Level in Solution", "setting": "EtOH 10% in water", "result": 18.3, "unit": "ppm"},
      {"measurement": "Solubility Increase vs water alone", "setting": "EtOH 10% in water", "result": 2.95},
      {"measurement": "Mean Lactam Level in Solution", "setting": "EtOH 25% in water", "result": 82.1, "unit": "ppm"},
      {"measurement": "Solubility Increase vs water alone", "setting": "EtOH 25% in water", "result": 13.24},
      {"measurement": "Mean Lactam Level in Solution", "setting": "EtOH 50% in water", "result": 1800.2, "unit": "ppm"},
      {"measurement": "Solubility Increase vs water alone", "setting": "EtOH 50% in water", "result": 290.35},
      {"measurement": "Mean Lactam Level in Solution", "setting": "Glycerol 0% in water", "result": 5.7, "unit": "ppm"},
      {"measurement": "Solubility Increase vs water alone", "setting": "Glycerol 0% in water", "result": 1.00},
      {"measurement": "Mean Lactam Level in Solution", "setting": "Glycerol 0.5% in water", "result": 1.7, "unit": "ppm"},
      {"measurement": "Solubility Increase vs water alone", "setting": "Glycerol 0.5% in water", "result": 0.29},
      {"measurement": "Mean Lactam Level in Solution", "setting": "Glycerol 1% in water", "result": 2.3, "unit": "ppm"},
      {"measurement": "Solubility Increase vs water alone", "setting": "Glycerol 1% in water", "result": 0.41},
      {"measurement": "Mean Lactam Level in Solution", "setting": "Glycerol 2% in water", "result": 3.1, "unit": "ppm"},
      {"measurement": "Solubility Increase vs water alone", "setting": "Glycerol 2% in water", "result": 0.54},
      {"measurement": "Mean Lactam Level in Solution", "setting": "Glycerol 5% in water", "result": 5.2, "unit": "ppm"},
      {"measurement": "Solubility Increase vs water alone", "setting": "Glycerol 5% in water", "result": 0.91},
      {"measurement": "Mean Lactam Level in Solution", "setting": "Glycerol 10% in water", "result": 9.0, "unit": "ppm"},
      {"measurement": "Solubility Increase vs water alone", "setting": "Glycerol 10% in water", "result": 1.59},
      {"measurement": "Mean Lactam Level in Solution", "setting": "Glycerol 25% in water", "result": 15.8, "unit": "ppm"},
      {"measurement": "Solubility Increase vs water alone", "setting": "Glycerol 25% in water", "result": 2.77},
      {"measurement": "Mean Lactam Level in Solution", "setting": "Glycerol 50% in water", "result": 95.3, "unit": "ppm"},
      {"measurement": "Solubility Increase vs water alone", "setting": "Glycerol 50% in water", "result": 16.72},
      {"measurement": "Mean Lactam Level in Solution", "setting": "MeOH 0% in water", "result": 6.2, "unit": "ppm"},
      {"measurement": "Solubility Increase vs water alone", "setting": "MeOH 0% in water", "result": 1.00},
      {"measurement": "Mean Lactam Level in Solution", "setting": "MeOH 0.5% in water", "result": 7.5, "unit": "ppm"},
      {"measurement": "Solubility Increase vs water alone", "setting": "MeOH 0.5% in water", "result": 1.20},
      {"measurement": "Mean Lactam Level in Solution", "setting": "MeOH 1% in water", "result": 9.0, "unit": "ppm"},
      {"measurement": "Solubility Increase vs water alone", "setting": "MeOH 1% in water", "result": 1.45},
      {"measurement": "Mean Lactam Level in Solution", "setting": "MeOH 2% in water", "result": 8.2, "unit": "ppm"},
      {"measurement": "Solubility Increase vs water alone", "setting": "MeOH 2% in water", "result": 1.32},
      {"measurement": "Mean Lactam Level in Solution", "setting": "MeOH 5% in water", "result": 10.4, "unit": "ppm"},
      {"measurement": "Solubility Increase vs water alone", "setting": "MeOH 5% in water", "result": 1.67},
      {"measurement": "Mean Lactam Level in Solution", "setting": "MeOH 10% in water", "result": 15.7, "unit": "ppm"},
      {"measurement": "Solubility Increase vs water alone", "setting": "MeOH 10% in water", "result": 2.52},
      {"measurement": "Mean Lactam Level in Solution", "setting": "MeOH 25% in water", "result": 48.8, "unit": "ppm"},
      {"measurement": "Solubility Increase vs water alone", "setting": "MeOH 25% in water", "result": 7.87},
      {"measurement": "Mean Lactam Level in Solution", "setting": "MeOH 50% in water", "result": 315.6, "unit": "ppm"},
      {"measurement": "Solubility Increase vs water alone", "setting": "MeOH 50% in water", "result": 50.90}
    ]}
  ]
}
